ChEMBL document CHEMBL2169755, “A Divergent SAR Study Allows Optimization of a Potent 5-HT2c Inhibitor to a Promising Antimalarial Scaffold” (ACS Med Chem Lett, 2012)
Converted amounts (≈) assume the structure as drawn. The source made the active and inactive calls. No cut-off for these calls is given here.

How the values were obtained:
Plasmodium falciparum [1] = experiment: microbe, parasite or virus in culture; details: 3D7 A
Description: Antiplasmodial activity against Plasmodium falciparum 3D7A assessed as inhibition of [3H]hypoxanthine incorporation incubated for 24 hrs prior to [3H]hypoxanthine addition measured after 24 hrs by beta scintillation counting

Liver microsomes = experiment: Intrinsic clearance in human liver microsomes at 0.5 uM by HPLC analysis; type: ADME, Microsome
[2] = molecular target: T1, 5-hydroxytryptamine receptor 2C (Homo sapiens, UniProt P28335); experiment: Inhibition of human 5HT2c receptor expressed in CHO-K1 cells assessed as inhibition of 5HT-induced calcium influx measured up to 30 secs by aequorin luminescence assay; type: functional, cell-based
T1 sequence (P28335 whole entry): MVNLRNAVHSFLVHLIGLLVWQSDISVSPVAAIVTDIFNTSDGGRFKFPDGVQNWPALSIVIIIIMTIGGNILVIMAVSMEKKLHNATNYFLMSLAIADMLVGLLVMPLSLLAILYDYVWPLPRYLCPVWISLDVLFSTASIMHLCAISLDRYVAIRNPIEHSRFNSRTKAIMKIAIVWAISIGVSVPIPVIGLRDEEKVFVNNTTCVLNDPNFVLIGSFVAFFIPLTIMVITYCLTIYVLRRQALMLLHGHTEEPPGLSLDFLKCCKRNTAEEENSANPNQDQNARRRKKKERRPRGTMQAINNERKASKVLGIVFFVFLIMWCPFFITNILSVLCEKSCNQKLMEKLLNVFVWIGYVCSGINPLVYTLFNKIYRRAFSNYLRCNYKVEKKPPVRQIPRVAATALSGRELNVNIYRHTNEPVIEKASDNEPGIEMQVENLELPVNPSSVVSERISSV

Plasmodium falciparum [3] = experiment: Antiplasmodial activity against Plasmodium falciparum Dd2 assessed as inhibition of [3H]hypoxanthine incorporation incubated for 24 hrs prior to [3H]hypoxanthine addition measured after 24 hrs by beta scintillation counting; type: functional, organism-based
Liver = experiment: Intrinsic clearance in mouse liver microsomes at 0.5 uM by HPLC analysis; type: ADME, Microsome
Plasmodium falciparum [4] = experiment: Antiplasmodial activity against Plasmodium falciparum assessed as pyknotic phenotype after 24 hrs by Giemsa-staining method; type: functional, organism-based
Plasmodium berghei [5] = experiment: Antimalarial activity against Plasmodium berghei ANKA infected in CD1 mouse assessed as inhibition of parasitemia at 50 mg/kg, po administered QD for 2 days measured after 4 days by YOYO1-based flow cytometric analysis relative to vehicle-treated control; type: functional
Plasmodium berghei [6] = experiment: Antimalarial activity against Plasmodium berghei ANKA assessed as reduction in viable parasites at 10 times IC50 after 72 hrs; type: functional, organism-based
[7] = Equilibrium solubility of the compound in phosphate buffer saline after 24 hrs by LC-MS analysis at pH 7.4; type: physicochemical
Cytochrome P450 2C19 = Cytochrome P450 2C19 (Homo sapiens, UniProt P33261); experiment: Inhibition of human CYP2C19 using 3-butyryl-7-methoxycoumarin as substrate incubated for 30 mins prior to substrate addition measured up to 10 mins by fluorimetry; type: ADME
Cytochrome P450 2C19, sequence (P33261 whole entry): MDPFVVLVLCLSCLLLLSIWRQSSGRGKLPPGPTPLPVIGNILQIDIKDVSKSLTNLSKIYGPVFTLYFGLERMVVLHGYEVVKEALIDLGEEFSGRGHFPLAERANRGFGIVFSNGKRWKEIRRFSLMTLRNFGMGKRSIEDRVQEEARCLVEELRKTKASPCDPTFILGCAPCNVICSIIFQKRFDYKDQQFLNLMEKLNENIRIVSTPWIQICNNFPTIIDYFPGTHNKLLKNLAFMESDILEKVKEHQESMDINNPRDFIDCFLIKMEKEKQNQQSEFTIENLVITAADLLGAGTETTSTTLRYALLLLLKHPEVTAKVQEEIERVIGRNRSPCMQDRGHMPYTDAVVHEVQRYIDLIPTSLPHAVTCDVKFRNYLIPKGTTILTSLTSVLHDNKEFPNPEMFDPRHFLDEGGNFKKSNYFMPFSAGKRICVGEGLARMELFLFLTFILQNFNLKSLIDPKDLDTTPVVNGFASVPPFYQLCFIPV

Cytochrome P450 2D6 = Cytochrome P450 2D6 (Homo sapiens, UniProt P10635); experiment: Inhibition of human CYP2D6 using 4-methylaminomethyl-7-methoxycoumarin as substrate incubated for 30 mins prior to substrate addition measured up to 10 mins by fluorimetry; type: ADME
Cytochrome P450 2D6, sequence (P10635 whole entry): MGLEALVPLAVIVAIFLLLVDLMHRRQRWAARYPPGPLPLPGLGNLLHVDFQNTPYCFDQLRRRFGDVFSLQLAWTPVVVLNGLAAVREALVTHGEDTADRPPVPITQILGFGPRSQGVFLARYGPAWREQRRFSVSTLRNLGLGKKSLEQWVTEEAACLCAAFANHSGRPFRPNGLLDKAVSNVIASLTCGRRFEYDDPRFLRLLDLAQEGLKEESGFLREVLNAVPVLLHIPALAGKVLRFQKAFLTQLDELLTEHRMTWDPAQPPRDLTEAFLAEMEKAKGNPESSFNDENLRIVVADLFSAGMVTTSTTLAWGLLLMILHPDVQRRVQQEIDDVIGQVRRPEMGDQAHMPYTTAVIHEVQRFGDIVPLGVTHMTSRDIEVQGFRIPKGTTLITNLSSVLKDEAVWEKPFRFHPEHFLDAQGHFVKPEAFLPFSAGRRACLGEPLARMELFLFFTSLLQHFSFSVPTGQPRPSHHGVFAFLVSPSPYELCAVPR

[8] = molecular target: Voltage-gated inwardly rectifying potassium channel KCNH2 (Homo sapiens, UniProt Q12809); experiment: Displacement of Cy3b-tagged dofetilide from human ERG expressed in CHO cells by fluorescence polarization assay
Voltage-gated inwardly rectifying potassium channel KCNH2, sequence (Q12809 whole entry): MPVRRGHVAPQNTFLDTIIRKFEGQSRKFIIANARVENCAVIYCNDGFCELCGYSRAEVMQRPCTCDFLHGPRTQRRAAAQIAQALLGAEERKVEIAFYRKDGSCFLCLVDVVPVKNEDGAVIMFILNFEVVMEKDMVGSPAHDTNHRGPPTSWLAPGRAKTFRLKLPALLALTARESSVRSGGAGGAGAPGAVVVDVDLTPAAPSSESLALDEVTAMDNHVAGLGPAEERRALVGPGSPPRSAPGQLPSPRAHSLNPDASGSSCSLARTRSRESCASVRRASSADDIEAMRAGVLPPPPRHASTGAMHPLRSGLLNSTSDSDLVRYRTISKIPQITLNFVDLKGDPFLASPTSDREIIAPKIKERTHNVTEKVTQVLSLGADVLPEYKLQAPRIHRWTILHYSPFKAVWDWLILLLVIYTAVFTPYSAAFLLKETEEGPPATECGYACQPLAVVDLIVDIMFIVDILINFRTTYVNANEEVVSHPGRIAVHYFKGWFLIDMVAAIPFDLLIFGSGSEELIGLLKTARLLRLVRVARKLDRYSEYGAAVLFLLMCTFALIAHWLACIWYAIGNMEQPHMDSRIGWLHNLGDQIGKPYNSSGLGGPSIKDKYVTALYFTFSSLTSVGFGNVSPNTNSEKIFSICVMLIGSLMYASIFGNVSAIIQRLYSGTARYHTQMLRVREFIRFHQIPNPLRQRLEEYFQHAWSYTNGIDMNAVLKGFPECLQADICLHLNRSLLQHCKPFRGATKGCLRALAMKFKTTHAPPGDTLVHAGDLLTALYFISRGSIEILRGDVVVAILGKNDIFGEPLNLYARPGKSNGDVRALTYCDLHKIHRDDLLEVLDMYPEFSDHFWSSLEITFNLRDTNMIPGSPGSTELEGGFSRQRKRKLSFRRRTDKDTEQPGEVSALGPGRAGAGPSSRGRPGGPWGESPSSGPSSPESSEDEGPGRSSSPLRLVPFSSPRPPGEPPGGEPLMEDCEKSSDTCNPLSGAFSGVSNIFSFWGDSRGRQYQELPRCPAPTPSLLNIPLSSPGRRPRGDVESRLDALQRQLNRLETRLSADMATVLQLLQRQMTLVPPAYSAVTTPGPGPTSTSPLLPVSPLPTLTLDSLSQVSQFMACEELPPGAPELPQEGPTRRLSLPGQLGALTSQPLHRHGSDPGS

[9] = Cytotoxicity against rat H9c2(2-1) cells after 48 hrs by resazurin reduction assay; type: cell-based; details: read-out: TC50
[10] = Equilibrium solubility of the compound in simulated gastric fluid after 24 hrs by LC-MS analysis at pH1.2; type: physicochemical; details: pH 1.2
[11] = Cytotoxicity against mouse L1210 cells after 48 hrs by resazurin reduction assay; type: cell-based; details: read-out: TC50
Plasmodium falciparum [12] = experiment: Antiplasmodial activity against Plasmodium falciparum assessed as pyknotic phenotype at 10-fold IC50 after 24 hrs by Giemsa-staining method; type: functional, organism-based
Plasmodium falciparum [13] = experiment: Antiplasmodial activity against Plasmodium falciparum HB3 assessed as inhibition of [3H]hypoxanthine incorporation incubated for 24 hrs prior to [3H]hypoxanthine addition measured after 24 hrs by beta scintillation counting; type: functional, organism-based
[14] = Cytotoxicity against human HepG2 cells after 48 hrs by resazurin reduction assay; type: cell-based; details: read-out: TC50
[15] = Chromatographic hydrophobicity index of the compound at pH 7.4; type: physicochemical
Albumin = Albumin (Homo sapiens, UniProt P02768); experiment: Binding affinity to human serum albumin by HPLC analysis; type: ADME; details: isolated protein
Albumin, sequence (P02768 whole entry): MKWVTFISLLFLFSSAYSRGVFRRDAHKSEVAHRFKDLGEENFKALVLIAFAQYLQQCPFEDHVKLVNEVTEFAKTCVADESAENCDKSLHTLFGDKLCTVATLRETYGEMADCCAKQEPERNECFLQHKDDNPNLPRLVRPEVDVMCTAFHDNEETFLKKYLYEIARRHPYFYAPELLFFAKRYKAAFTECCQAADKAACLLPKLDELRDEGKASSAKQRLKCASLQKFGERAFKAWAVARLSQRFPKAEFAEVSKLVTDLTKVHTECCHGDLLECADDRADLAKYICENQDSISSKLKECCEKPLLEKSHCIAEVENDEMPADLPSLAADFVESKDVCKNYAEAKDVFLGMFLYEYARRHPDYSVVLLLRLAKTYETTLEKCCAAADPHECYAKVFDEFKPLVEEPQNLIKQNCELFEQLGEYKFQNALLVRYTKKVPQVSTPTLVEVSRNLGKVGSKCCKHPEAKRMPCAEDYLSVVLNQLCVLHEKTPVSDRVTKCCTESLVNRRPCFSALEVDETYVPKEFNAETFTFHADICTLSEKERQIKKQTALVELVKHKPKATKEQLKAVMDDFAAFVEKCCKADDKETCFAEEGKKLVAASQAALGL

[16] = Cytotoxicity against MDCK cells after 48 hrs by resazurin reduction assay; type: cell-based, Canis lupus familiaris; details: dog, read-out: TC50
Cytochrome P450 3A4 = Cytochrome P450 3A4 (Homo sapiens, UniProt P08684); experiment: Inhibition of human CYP3A4 using 7-benzyloxyquinoline as substrate incubated for 30 mins prior to substrate addition measured up to 10 mins by fluorimetry; type: ADME
Cytochrome P450 3A4, sequence (P08684 whole entry): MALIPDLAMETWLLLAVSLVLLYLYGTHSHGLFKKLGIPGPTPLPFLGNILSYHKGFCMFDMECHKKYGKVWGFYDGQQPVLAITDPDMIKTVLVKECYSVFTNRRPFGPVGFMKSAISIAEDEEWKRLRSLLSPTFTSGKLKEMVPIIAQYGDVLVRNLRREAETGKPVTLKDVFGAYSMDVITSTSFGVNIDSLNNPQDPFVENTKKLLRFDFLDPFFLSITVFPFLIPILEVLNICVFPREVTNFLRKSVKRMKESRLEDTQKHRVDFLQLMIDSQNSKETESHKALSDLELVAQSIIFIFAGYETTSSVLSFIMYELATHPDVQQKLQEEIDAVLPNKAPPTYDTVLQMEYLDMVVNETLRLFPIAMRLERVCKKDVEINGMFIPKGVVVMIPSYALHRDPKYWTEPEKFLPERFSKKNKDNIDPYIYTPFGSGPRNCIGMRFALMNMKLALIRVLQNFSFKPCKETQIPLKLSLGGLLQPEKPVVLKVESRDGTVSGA

[17] = Equilibrium solubility of the compound in fed state simulated intestinal fluid after 24 hrs by LC-MS analysis at pH 5; type: physicochemical
[18] = Chromatographic hydrophobicity index of the compound at pH 10.5; type: physicochemical
[19] = Chromatographic hydrophobicity index of the compound at pH 2; type: physicochemical
Plasmodium falciparum [20] = experiment: Antiplasmodial activity against Plasmodium falciparum 3D7A assessed as inhibition of [3H]hypoxanthine incorporation after 96 hrs by beta scintillation counting; type: functional, organism-based; details: 3D7 A
[21] = Plasma protein binding in mouse at 1 ug/mL by equilibrium dialysis method; type: ADME, cell-free; details: read-out: PPB (converted)
Cytochrome P450 2C9 = Cytochrome P450 2C9 (Homo sapiens, UniProt P11712); experiment: Inhibition of human CYP2C9 using 7-methoxy-4-triflouromethylcoumarin-3-acetic acid as substrate incubated for 30 mins prior to substrate addition measured up to 10 mins by fluorimetry; type: ADME
Cytochrome P450 2C9, sequence (P11712 whole entry): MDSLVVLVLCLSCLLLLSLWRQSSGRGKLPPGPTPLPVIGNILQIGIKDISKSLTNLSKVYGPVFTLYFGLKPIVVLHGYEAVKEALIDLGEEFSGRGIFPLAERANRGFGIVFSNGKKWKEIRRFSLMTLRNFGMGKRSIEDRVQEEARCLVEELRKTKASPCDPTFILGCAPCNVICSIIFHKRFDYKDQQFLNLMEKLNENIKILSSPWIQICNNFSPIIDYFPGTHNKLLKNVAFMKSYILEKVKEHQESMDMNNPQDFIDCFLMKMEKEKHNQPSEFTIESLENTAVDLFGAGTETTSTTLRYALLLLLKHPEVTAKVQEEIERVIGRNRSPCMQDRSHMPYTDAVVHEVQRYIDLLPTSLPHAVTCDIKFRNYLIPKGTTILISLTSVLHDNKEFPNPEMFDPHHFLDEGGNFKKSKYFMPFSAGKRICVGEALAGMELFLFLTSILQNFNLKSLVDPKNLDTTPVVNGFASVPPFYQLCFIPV

[22] = Equilibrium solubility of the compound in fasted state simulated intestinal fluid after 24 hrs by LC-MS analysis at pH 6.8; type: physicochemical
Plasmodium falciparum [23] = experiment: Selectivity ratio of IC50 for Plasmodium falciparum Dd2 to IC50 for Plasmodium falciparum HB3; type: functional
Plasmodium falciparum [24] = experiment: Antiplasmodial activity against Plasmodium falciparum 3D7A assessed as inhibition of [3H]hypoxanthine incorporation after 72 hrs by beta scintillation counting; type: functional, organism-based; details: 3D7 A
[25] = Cytotoxicity against mouse Neuro2a cells after 48 hrs by resazurin reduction assay; type: cell-based, N2a; details: read-out: TC50

COc1cc2c(cc1C(F)(F)F)N(C(=O)Nc1cc(OC(F)(F)F)cc(-c3ccccc3)c1)CC2
IC50 (Plasmodium falciparum [1]): 2260 nM

O=C(Nc1cc(OC(F)(F)F)cc(-c2cccnc2)c1)N1CCc2ccc(F)cc21
CLH (Liver microsomes): 0.5 mL/min/g | IC50 [2]: 600 nM | IC50 (Plasmodium falciparum [1]): 10 nM | IC50 (Plasmodium falciparum [3]): 10 nM | CLH (Liver): 2.1 mL/min/g

O=C(Nc1cc(OC(F)(F)F)cc(-c2cccnc2)c1)N1CCc2cccc(F)c21
IC50 [2]: > 40000 nM | IC50 (Plasmodium falciparum [1]): 410 nM | IC50 (Plasmodium falciparum [3]): 1070 nM

COc1cc2c(cc1C(F)(F)F)N(C(=O)Nc1cc(OC(F)(F)F)cc(-c3cc[nH]c3)c1)CC2
IC50 (Plasmodium falciparum [1]): 1070 nM

Cc1ccc2c(c1)CCN2C(=O)Nc1cc(OC(F)(F)F)cc(-c2cccnc2)c1
IC50 (Plasmodium falciparum [1]): 10 nM | IC50 (Plasmodium falciparum [3]): 40 nM

COc1ccc2c(c1)N(C(=O)Nc1cc(OC(F)(F)F)cc(-c3cccnc3)c1)CC2
IC50 [2]: 120 nM | IC50 (Plasmodium falciparum [1]): 90 nM

O=C(Nc1cc(OC(F)(F)F)cc(-c2cccnc2)c1)N1CCc2cc(F)ccc21
IC50 (Plasmodium falciparum [1]): 10 nM

COc1cc2c(cc1C(F)(F)F)N(C(=O)Nc1cc(F)cc(-c3cccnc3)c1)CC2
IC50 [2]: 10 nM | IC50 (Plasmodium falciparum [1]): 430 nM | IC50 (Plasmodium falciparum [3]): 2120 nM

C[C@@H]1CC[C@H]2[C@@H](C)C(=O)O[C@@H]3O[C@@]4(C)CC[C@@H]1[C@]32OO4 [ARTEMISININ]
IC50 (Plasmodium falciparum [1]): 20 nM | Activity (Plasmodium falciparum [4]): Active

COc1cc2c(cc1C(F)(F)F)N(C(=O)Nc1cccc(OC(F)(F)F)c1)CC2
IC50 (Plasmodium falciparum [1]): > 5000 nM

COc1cc2c(cc1C(F)(F)F)N(C(=O)Nc1cc(OC(F)(F)F)cc(-c3cncnc3)c1)CC2
IC50 (Plasmodium falciparum [1]): 30 nM | IC50 (Plasmodium falciparum [3]): > 1000 nM

Cc1cc2c(cc1Cl)N(C(=O)Nc1cc(OC(F)(F)F)cc(-c3cccnc3)c1)CC2
IC50 (Plasmodium falciparum [1]): 20 nM | IC50 (Plasmodium falciparum [3]): 140 nM

O=C(Nc1cc(OC(F)(F)F)cc(-c2cccnc2)c1)N1CCc2ccc(Cl)cc21
IC50 (Plasmodium falciparum [1]): 150 nM

Cc1ccc2c(c1)N(C(=O)Nc1cc(OC(F)(F)F)cc(-c3cccnc3)c1)CC2
IC50 (Plasmodium falciparum [1]): 30 nM

O=C(Nc1cc(OC(F)(F)F)cc(-c2cccnc2)c1)N1CCc2cc(C(F)(F)F)ccc21
IC50 (Plasmodium falciparum [1]): 20 nM

CCc1nc(N)nc(N)c1-c1ccc(Cl)cc1 [PYRIMETHAMINE]
IC50 (Plasmodium falciparum [1]): 20 nM | IC50 (Plasmodium falciparum [3]): > 40000 nM

CCN(CC)CCCC(C)Nc1ccnc2cc(Cl)ccc12 (stereo unspecified)
Activity (Plasmodium falciparum [4]): Active

COc1cc2c(cc1C(F)(F)F)N(C(=O)Nc1cc(Br)cc(OC(F)(F)F)c1)CC2
IC50 [2]: 390 nM | IC50 (Plasmodium falciparum [1]): 4840 nM

CN1CCN(c2cc3c(cc2Cl)CCN3C(=O)Nc2cc(OC(F)(F)F)cc(-c3cccnc3)c2)CC1
inhibition in vivo at 50 mg/kg (Plasmodium berghei [5]): 35% | IC50 [2]: 10000 nM | IC50 (Plasmodium falciparum [1]): 140 nM | Activity (Plasmodium berghei [6]): Active | IC50 (Plasmodium falciparum [3]): 210 nM

O=C(Nc1cc(OC(F)(F)F)cc(-c2cccnc2)c1)N1CCc2ccccc21
IC50 [2]: 1250 nM | IC50 (Plasmodium falciparum [1]): 10 nM | IC50 (Plasmodium falciparum [3]): 20 nM

COc1cc2c(cc1C(F)(F)F)N(C(=O)Nc1cc(-c3cccnc3)cc(C(F)(F)F)c1)CC2
IC50 [2]: 10 nM | IC50 (Plasmodium falciparum [1]): 140 nM | IC50 (Plasmodium falciparum [3]): 810 nM

O=C(Nc1cc(OC(F)(F)F)cc(-c2cccnc2)c1)N1CCc2ccc(Br)cc21
IC50 (Plasmodium falciparum [1]): 190 nM | IC50 (Plasmodium falciparum [3]): 640 nM

COc1cc2c(cc1C(F)(F)F)N(C(=O)Nc1cc(C)cc(OC(F)(F)F)c1)CC2
IC50 (Plasmodium falciparum [1]): > 5000 nM

COc1cc2c(cc1C(F)(F)F)N(C(=O)Nc1cc(Br)cc(-c3cccnc3)c1)CC2
IC50 [2]: 10 nM | IC50 (Plasmodium falciparum [1]): 160 nM | IC50 (Plasmodium falciparum [3]): 1100 nM

COc1cc2c(cc1C(F)(F)F)N(C(=O)Nc1cc(OC(F)(F)F)cc(-c3ccc(C)nc3)c1)CC2
IC50 (Plasmodium falciparum [1]): 290 nM | IC50 (Plasmodium falciparum [3]): 800 nM

O=C(Nc1cc(OC(F)(F)F)cc(-c2cccnc2)c1)N1CCc2ccc(CO)cc21
IC50 [2]: 180 nM | IC50 (Plasmodium falciparum [1]): 400 nM

COc1cc2c(cc1C(F)(F)F)N(C(=O)Nc1cccc(-c3cccnc3)c1)CC2
IC50 [2]: 7 nM | IC50 (Plasmodium falciparum [1]): 4450 nM

COc1cc2c(cc1C(F)(F)F)N(C(=O)Nc1cc(OC(F)(F)F)cc(-c3cccnc3)c1)CC2
solubility thermodynamic at 24 h [7]: < 0.1 µg/mL | CLH (Liver microsomes): < 0.3 mL/min/g | IC50 (Cytochrome P450 2C19): > 50000 nM | IC50 [2]: 50 nM | IC50 (Cytochrome P450 2D6): 13000 nM | Activity [8]: > 16 µM | CC50 at 48 h [9]: > 12500 nM | solubility thermodynamic at 24 h [10]: 1550 µg/mL (≈ 3120 µM) | CC50 at 48 h [11]: 3200 nM | Activity (Plasmodium falciparum [12]): Active | IC50 (Plasmodium falciparum [13]): 90 nM | CC50 at 48 h [14]: 7000 nM | CHI [15]: 4.22 | Activity (Albumin): 97.8% | CC50 at 48 h [16]: > 12500 nM | IC50 (Cytochrome P450 3A4): > 50000 nM | solubility thermodynamic at 24 h [17]: 16.7 µg/mL (≈ 33.6 µM) | CHI [18]: 4.18 | CHI [19]: 3.09 | IC50 (Plasmodium falciparum [20]): 25 nM | IC50 (Plasmodium falciparum [3]): > 1000 nM | fraction unbound at 1 ug/mL [21]: 0.002 | IC50 (Cytochrome P450 2C9): 2000 nM | solubility thermodynamic at 24 h [22]: < 0.1 µg/mL | CLH (Liver): < 0.3 mL/min/g | Ratio IC50 (Plasmodium falciparum [23]): >10 | IC50 (Plasmodium falciparum [24]): 40 nM | CC50 at 48 h [25]: > 12500 nM

CN1CCN(c2ccc3c(c2)N(C(=O)Nc2cc(OC(F)(F)F)cc(-c4cccnc4)c2)CC3)CC1
IC50 [2]: > 40000 nM | IC50 (Plasmodium falciparum [1]): 490 nM
